Read-outs that look alike come from different tables or passages of the source.
Columns and labels:
[1] = test system: MDA-MB231 cells; test: Apotracker Red flow cytometry drug screen, MDA-MB231; assay type: cell-based, human; conditions: 1 to 100 μM, 48 h, Apotracker Red 150 nM, 3 independent experiments
Protocol: (§1) To corroborate the versatility of Apotracker Red, we built a screening platform including a total of 8 cancer cell lines of variable origin and pathogenesis: breast (MCF7, MDA‐MB231 and MMTV‐PyMT (mouse mammary tumour virus‐polyoma middle tumour‐antigen)[23]), lung (A549), prostate (PC3 and LnCap), blood cells (Jurkat) and colon (HT29). All cell lines were cultured under standard conditions and seeded with the fluorescent proliferation marker CellTrace^TM Violet (CV) in 96‐well plates (10–20×10^3 cells/well) for high‐throughput flow cytometry. […] Using this platform, we tested a collection of FDA‐approved drugs in all cancer cell lines and compared their ability to induce apoptosis using Apotracker Red as the reporter. Specifically, we included DNA alkylation agents (e.g., cyclophosphamide, cisplatin, 5‐fluorouracil, gemcitabine, temozolomide), proteasomal and mitotic inhibitors (e.g., bortezomib, docetaxel, paclitaxel) and antagonists of specific proteins (e.g., dexamethasone, tamoxifen; Figure 3 b).
Edinburgh. Human peripheral blood neutrophils were isolated as previously described.[3] Briefly, whole blood was drawn into tubes containing anti -coagulant 3.6% sodium citrate (final concentration: 0.4% (w/v)) and centrifuged at 350 g for 20 min at r.t. with lowest acceleration and no brake. Platelet-rich plasma was rem oved, and leukocytes separated from erythrocytes by 0.6% dextran sedimentation in saline for 30 min at r.t. The upper layer was further fractionated using an isotonic discontinuous Percoll density gradient. Neutrophils were harvested from the 63% and 72.9% interface and cultured in Iscove’s Modified Dulbecco’s Medium (IMDM, Gibco) in 5% h um an A B se rum fo r 1 8 h at 37°C, 5% CO2 to in du ce spontaneous […]
Cell culture. MCF-7, A549, LnCap, MDA-MB-231, Jurkat T cells and PC3 cells were obtained from American Type Culture Collection (ATCC). HT29 cells were purchased from Merck (S i g m a Aldrich, UK). Mouse Mammary Tumour Virus –Polyoma Middle T antigen (MMTV -PyMT) cells were provided by the lab of Mikala Egeblad (CSHL, US). […]

[2] = test system: 8 cancer cell lines; test: Classification of drugs by Apotracker Red (apoptosis) and CellTrace Violet (proliferation) staining; assay type: cell-based; conditions: for effect on cell proliferation (CellTrace Violet): Figure S8
Protocol: as §1, with “cytometry. After drug treatment (i.e., drug addition plus 24 h incubation), Apotracker Red was incubated for 10 min and fluorescence readings were directly acquired without any additional processing steps (Figure 3 a).” for “cytometry.”
(§2) First, all drugs were tested in the 8 different cell lines to determine the percentages of Apotracker Red‐stained apoptotic cells compared to no treatment (Figure 3 c; Figure S8). […] All 5 drugs were tested at multiple concentrations (from 1 to 100 μM) and with incubation times up to 48 h to examine whether drugs could block cell proliferation at late stages (Figures S9–S13).
Figure S8. Heatmap of relative inhibition of cell proliferation (as indicated by staining of CellTraceTM Violet) after treatment of cancer cell lines with different drugs. Data presented as an average of 3 independent experiments. Cells were stained on day 0 with CellTraceTM Violet (1 µM) and mean fluorescence intensities were determined on the 5L LSR after 24 h of treatment with the different drugs. […]
Cell culture. MCF-7, A549, LnCap, MDA-MB-231, Jurkat T cells and PC3 cells were obtained from American Type Culture Collection (ATCC). HT29 cells were purchased from Merck (S i g m a Aldrich, UK). Mouse Mammary Tumour Virus –Polyoma Middle T antigen (MMTV -PyMT) cells were provided by the lab of Mikala Egeblad (CSHL, US). MMTV-PyMT, MCF-7, LnCap, MDA-MB-231 and Jurkat T cells were cultured in Roswell Park Memorial Institute (RPMI) 1640 Medium supplemented with 10% fetal bovine serum (FBS) , 100 U mL-1 penicillin and 0.1 mg mL-1 streptomycin. A549 and PC3 cells were cultured in Dublecco’s modified Eagle’s medium (DMEM) supplemented with 10% fetal bovine serum (FBS), 100 U mL-1 penicillin and 0.1 mg […]
Flow cytometry drug screen.

[3] = test system: breast cancer cells (MMTV-PyMT, MDA-MB231, MCF7); test: Dose-dependency study in breast cancer cell lines; assay type: cell-based, mouse and human; conditions: 1 to 100 μM, 48 h, Apotracker Red 150 nM, 3 independent experiments
Protocol: as §2, with “S8). […] From this screen, we decided to select 5 drugs with potent pro‐apoptotic response in breast cancer, the most diagnosed cancer worldwide.[25] […] From group 2, we selected cyclophosphamide, tamoxifen, and 5‐fluorouracil as pro‐apoptotic molecules.” for “S8).”
Figure 4 Apotracker Red detects dose‐dependent chemotherapeutic‐induced apoptosis in mouse and human breast cancer cell lines. Cells were plated with 1 μM CV, treated with increasing concentrations (0, 1, 3, 10, 30 and 100 μM) of selected drugs for 48 h, and stained with Apotracker Red (150 nM) before data acquisition. Drugs: tamoxifen (beige), cisplatin (black), 5‐fluorouracil (green), gemcitabine (pink) and cyclophosphamide (red). Data presented as mean±SEM of 3 independent experiments.
Edinburgh. Human peripheral blood neutrophils were isolated as previously described.[3] Briefly, whole blood was drawn into tubes containing anti -coagulant 3.6% sodium citrate (final concentration: 0.4% (w/v)) and centrifuged at 350 g for 20 min at r.t. with lowest acceleration and no brake. Platelet-rich plasma was rem oved, and leukocytes separated from erythrocytes by 0.6% dextran sedimentation in saline for 30 min at r.t. […]
were centrifuged (300 g, 5 min, r.t.), washed once with PBS before addition of 0.05% Trypsin, 0.02% ethylenediaminetetraacetic acid (EDTA) in Hank’s balanced salt solution (HBSS) and incubation at 37°C for 5 min. […] Histograms and mean fluorescence intensities of apoptotic cells were measured on a 5L LSR flow cytometer under the following excitation/emission filters: Apotracker Red (561/610 nm), Annexin V-AF647 (647 /670 nm).
Data were acquired using the FACS Diva software and analysed using the FlowJo X software. […]

[4] = test system: apoptotic cells (primary human neutrophils, Jurkat T cells); test: Divalent cation-independent staining, flow cytometry with EDTA; assay type: cell-based; conditions: 2.5 mM EDTA, Apotracker Red 150 nM, Annexin V-AF647 25 nM
[5] = 8 cancer cell lines, 24 h treatment, flow cytometry

Molecule | Apotracker Red staining in MDA-MB-231 cells, dose-dependency study [1] | drug group by Apotracker Red (apoptosis) and CV (proliferation) staining [2, 5] | further results
O=c1[nH]cc(F)c(=O)[nH]1 [5-fluorouracil] | weaker Apotracker Red‐staining | induced apoptosis with little reduction of cell proliferation | –
CC(C)C[C@H](NC(=O)[C@H](Cc1ccccc1)NC(=O)c1cnccn1)B(O)O [bortezomib] | – | induced apoptosis with little reduction of cell proliferation | effect on cell proliferation (CellTrace Violet) ([2]; 24 h treatment): very minor effects on cell proliferation
O=P1(N(CCCl)CCCl)NCCCO1 (stereo not shown) [cyclophosphamide] | weaker Apotracker Red‐staining | – | drug group by Apotracker Red (apoptosis) and CV (proliferation) staining [2]: induced apoptosis with little reduction of cell proliferation
C[C@@H]1C[C@H]2[C@@H]3CCC4=CC(=O)C=C[C@]4(C)[C@@]3(F)[C@@H](O)C[C@]2(C)[C@@]1(O)C(=O)CO [dexamethasone] | – | had no impact on proliferation or apoptosis | –
CC(=O)O[C@@]12CO[C@@H]1C[C@H](O)[C@@]1(C)C(=O)[C@H](O)C3=C(C)[C@@H](OC(=O)[C@H](O)[C@@H](NC(=O)OC(C)(C)C)c4ccccc4)C[C@@](O)([C@@H](OC(=O)c4ccccc4)[C@H]21)C3(C)C [docetaxel] | – | inhibited cell proliferation but showed little or no induction of apoptosis | –
Nc1ccn([C@@H]2O[C@H](CO)[C@@H](O)C2(F)F)c(=O)n1 [gemcitabine] | weaker Apotracker Red‐staining | induced apoptosis and decreased cell proliferation | –
CC(=O)O[C@H]1C(=O)[C@@]2(C)[C@H]([C@H](OC(=O)c3ccccc3)[C@]3(O)C[C@H](OC(=O)[C@H](O)[C@@H](NC(=O)c4ccccc4)c4ccccc4)C(C)=C1C3(C)C)[C@]1(OC(C)=O)CO[C@@H]1C[C@@H]2O [paclitaxel] | – | induced apoptosis with little reduction of cell proliferation | effect on cell proliferation (CellTrace Violet) ([2]; 24 h treatment): very minor effects on cell proliferation
CC/C(=C(\c1ccccc1)c1ccc(OCCN(C)C)cc1)c1ccccc1 [tamoxifen] | – | induced apoptosis with little reduction of cell proliferation | percentages of Apotracker Red staining across all breast cancer cells, dose-dependency study [3]: highest percentages of Apotracker Red staining
Cn1nnc2c(C(N)=O)ncn2c1=O [temozolomide] | – | inhibited cell proliferation but showed little or no induction of apoptosis | –
Annexin V‐AF647: a 36 kDa protein marker of PtdSer in the presence of Ca2+ ions (protein, UniProt P08758 2-320, looked up, Alexa Fluor 647 label, a 36 kDa protein marker of PtdSer in the presence of Ca2+ ions) Annexin A5: AQVLRGTVTDFPGFDERADAETLRKAMKGLGTDEESILTLLTSRSNAQRQEISAAFKTLFGRDLLDDLKSELTGKFEKLIVALMKPSRLYDAYELKHALKGAGTNEKVLTEIIASRTPEELRAIKQVYEEEYGSSLEDDVVGDTSGYYQRMLVVLLQANRDPDAGIDEAQVEQDAQALFQAGELKWGTDEEKFITIFGTRSVSHLRKVFDKYMTISGFQIEETIDRETSGNLEQLLLAVVKSIRSIPAYLAETLYYAMKGAGTDDHTLIRVMVSRSEIDLFNIRKEFRKNFATSLYSMIKGDTSGDYKKALLLLCGEDD | – | – | staining of apoptotic cells after chelation of divalent cations [4]: failed to bind

— publication PMC10947113, “A Bivalent Activatable Fluorescent Probe for Screening and Intravital Imaging of Chemotherapy‐Induced Cancer Cell Death” (Angewandte Chemie (Weinheim an Der Bergstrasse, Germany), 2021)
